Among the data in ChEMBL document CHEMBL4834488, “Improved Synthesis of New FDA-Approved Treatment for KRAS G12C Mutation in Non-small Cell Lung Cancer” (ACS Med Chem Lett, 2021) are AUC values, retold here.

This data set in a line: AUC in non-small-cell lung cancer/colorectal cancer patient serum at 960 mg, po. The class given is ADME, cell-free. Details: dose 960 mg. To be noted: human.

On to `C=CC(=O)N1CCN(c2nc(=O)n(-c3c(C)ccnc3C(C)C)c3nc(-c4c(O)cccc4F)c(F)cc23)[C@@H](C)C1` [SOTORASIB], for which the AUC (commonly the area under the concentration-time curve, a measure of exposure) was 65300 ng·h/mL.
